Laboratory results from patent US20130217678A1, “PHARMACEUTICAL AGENT COMPRISING QUINOLONE COMPOUND” (OTSUKA PHARMACEUTICAL CO., LTD., priority 2008, published 2013).

What was measured:
[1] = tested on: human neuroblastoma cell lines SH-SY5Y treated with 1-methyl-4-phenylpyridinium (MPP+); assay: Improvement of mitochondrial function (Alamar Blue mitochondrial oxidation reduction activity) in MPP+-treated SH-SY5Y cells; format: cell-based; conditions: 1.5 mM MPP+, relative to cells in DMSO alone = 100%, read-out: Fluorescence Intensity (%); for activity at 0.01 µg/mL: compound 0.01 μg/ml; for activity at 0.03 µg/mL: compound 0.03 μg/ml; for activity at 0.1 µg/mL: compound 0.1 μg/ml; for activity at 0.3 µg/mL: compound 0.3 μg/ml; for activity at 1 µg/mL: compound 1 μg/ml
Description: In human neuroblastoma cell lines SH-SY5Y in which mitochondrial function was damaged by MPP^+ treatment (Bollimuntha S. et al., J Biol Chem, 280, 2132-2140 (2005) and Shang T. et al., J Biol Chem, 280, 34644-34653 (2005)), the improvement of mitochondrial function was evaluated on the basis of the measurement value for mitochondrial oxidation reduction activity using Alamar Blue fluorescent dye after the compound addition (Nakai M. et al, Exp Neurol, 179, 103-110 (2003)).
The human neuroblastoma cell lines SH-SY5Y were cultured in Dulbecco's Modified Eagle's Medium containing 10% fetal bovine serum (DMEM containing 50 units/ml penicillin and 50 μg/ml streptomycin as antibiotics) at 37° C. in the presence of 5% carbon dioxide. Cells were scattered on a poly-D-lysine-coated 96-well black plate at a concentration of 3−6×10^4 cells/cm^2 (medium amount: 100 μl/well) and cultured in the medium for two days. Further, the medium was changed to DMEM containing a 1% N2 supplement (N2-DMEM) or to a medium (100 μl/well) in which 1.5 mM MPP^+ was dissolved. The cells were cultured therein for 39 to 48 hours, and then subjected to a mitochondrial oxidation reduction activity measurement system. A sample compound that had been previously dissolved in dimethyl sulfoxide (DMSO) was diluted with N2-DMEM and added in a volume of 10 μl/well 24 hours before the activity measurement (final compound concentration: 0.01 to 1 μg/ml).
After removal of the medium by suction, a balanced salt solution containing 10% Alamar Blue (154 mM sodium chloride, 5.6 mM potassium chloride, 2.3 mM calcium chloride, 1.0 mM magnesium chloride, 3.6 mM sodium hydrogen carbonate, 5 mM glucose, 5 mM HEPES, pH 7.2) was added in a volume of 100 μl/well, and reacted in an incubator at 37° C. for 1 hour. The fluorescent intensity was detected using a fluorescence detector (a product of Hamamatsu Photonics K.K., excitation wavelength: 530 nm, measurement wavelength: 580 nm) to thereby measure the mitochondrial oxidation reduction activity.
The fluorescent intensity of the well of the cells cultured in a medium containing MPP^+ and each of the sample compounds was relatively evaluated based on the 100% fluorescent intensity of the well of the cells cultured in a medium containing DMSO alone (final concentration: 0.1%).

melting point [°C]	SMILES	activity at 0.01 µg/mL [1] [%]	activity at 0.03 µg/mL [1] [%]	activity at 0.1 µg/mL [1] [%]	activity at 0.3 µg/mL [1] [%]	activity at 1 µg/mL [1] [%]
249 to 250	COc1ccc(-c2c[nH]c3c(N4CCCCCC4)ccc(C)c3c2=O)cc1 [Example 84, 8-Azepan-1-yl-3-(4-methoxyphenyl)-5-methyl-1H-quinolin-4-one]					
236 to 237	CCCOc1cc(-n2ccnc2)cc2c(=O)c(-c3ccc(OC)cc3)c[nH]c12 [Example 85, 6-Imidazol-1-yl-3-(4-methoxyphenyl)-8-propoxy-1H-quinolin-4-one]					
212 to 214	COc1ccc(-c2c[nH]c3c(OCC4CC4)ccc(OC)c3c2=O)cc1 [Example 88, 8-Cyclopropylmethoxy-5-methoxy-3-(4-methoxyphenyl)-1H-quinolin-4-one]					
158 to 160	COc1ccc(-c2c[nH]c3c(C(=O)N(C)C)ccc(C)c3c2=O)cc1 [Example 89, 3-(4-Methoxyphenyl)-5-methyl-4-oxo-1,4-dihydroquinolin-8-carboxylic acid dimethylamide]					
193 to 195	COc1ccc(-c2c[nH]c3c(C(=O)N4CCCC4)ccc(C)c3c2=O)cc1 [Example 90, 3-(4-Methoxyphenyl)-5-methyl-8-(pyrrolidine-1-carbonyl)-1H-quinolin-4-one]					
237 to 239	COc1ccc(-c2c[nH]c3c(OC4CCCC4)ccc(C)c3c2=O)cc1 [Example 91, 8-Cyclopentyloxy-3-(4-methoxyphenyl)-5-methyl-1H-quinolin-4-one]					
100 to 101	CCCOc1ccc(C)c2c(=O)c(-c3ccc(OC)cc3)cn(CC3CC3)c12 [Example 92, 1-Cyclopropylmethyl-3-(4-methoxyphenyl)-5-methyl-8-propoxy-1H-quinolin-4-one]					
213 to 215	COc1ccc(-c2c[nH]c3c(OC4CCCC4)ccc(OC)c3c2=O)cc1 [Example 93, 8-Cyclopentyloxy-5-methoxy-3-(4-methoxyphenyl)-1H-quinolin-4-one]					
232 to 234	CCOc1ccc(OCC)c2c(=O)c(-c3ccc(F)cc3)c[nH]c12 [Example 94, 5,8-Diethoxy-3-(4-fluorophenyl)-1H-quinolin-4-one]					
189 to 190	COc1ccc(-c2c[nH]c3c(-c4ccsc4)ccc(C)c3c2=O)cc1 [Example 97, 3-(4-Methoxyphenyl)-5-methyl-8-thiophen-3-yl-1H-quinolin-4-one]					
229 to 231	COc1ccc(-c2c[nH]c3c(-c4cc5ccccc5s4)ccc(C)c3c2=O)cc1 [Example 98, 8-Benzo[b]thiophen-2-yl-3-(4-methoxyphenyl)-5-methyl-1H-quinolin-4-one]					
186 to 187	COc1ccc(-c2c[nH]c3c(N(C)C4CCCCC4)ccc(C)c3c2=O)cc1 [Example 99, 8-(N-Cyclohexyl-N-methylamino)-3-(4-methoxyphenyl)-5-methyl-1H-quinolin-4-one]					
197 to 199	COc1ccc(-c2c[nH]c3c(-c4cccs4)ccc(C)c3c2=O)cc1 [Example 100, 3-(4-Methoxyphenyl)-5-methyl-8-thiophen-2-yl-1H-quinolin-4-one]					
111 to 113	COc1ccc(-c2c[nH]c3c(N(C)CC(C)C)ccc(C)c3c2=O)cc1 [Example 102, 8-(N-Isobutyl-N-methyl-amino)-3-(4-methoxyphenyl)-5-methyl-1H-quinolin-4-one]					
186 to 187	COc1ccc(-c2c[nH]c3c(N(C)C(C)C)ccc(C)c3c2=O)cc1 [Example 103, 8-(N-Isopropyl-N-methylamino)-3-(4-methoxyphenyl)-5-methyl-1H-quinolin-4-one]					
266 to 268	COc1ccc(OC2CCCC2)c2[nH]cc(-c3ccc(Cl)cc3Cl)c(=O)c12 [Example 104, 8-Cyclopentyloxy-3-(2,4-dichlorophenyl)-5-methoxy-1H-quinolin-4-one]					
254 to 256	COc1ccc(OCC2CC2)c2[nH]cc(-c3ccc(Cl)cc3Cl)c(=O)c12 [Example 105, 8-Cyclopropylmethoxy-3-(2,4-dichlorophenyl)-5-methoxy-1H-quinolin-4-one]					
154 to 155	O=c1c(-c2ccc(Cl)cc2Cl)c[nH]c2c(OC3CCCC3)ccc(O)c12 [Example 106, 8-Cyclopentyloxy-3-(2,4-dichlorophenyl)-5-hydroxy-1H-quinolin-4-one]					
163 to 165	O=c1c(-c2ccc(Cl)cc2Cl)c[nH]c2c(OCC3CC3)ccc(O)c12 [Example 107, 8-Cyclopropylmethoxy-3-(2,4-dichlorophenyl)-5-hydroxy-1H-quinolin-4-one]					

SMILES	melting point [°C]	activity at 0.01 µg/mL [1] [%]	activity at 0.03 µg/mL [1] [%]	activity at 0.1 µg/mL [1] [%]	activity at 0.3 µg/mL [1] [%]	activity at 1 µg/mL [1] [%]
CCn1cc(-c2ccc(OC)cc2)c(=O)c2ccc(OC)cc21 [Example 2, 1-Ethyl-7-methoxy-3-(4-methoxyphenyl)-1H-quinolin-4-one]	129 to 131	71	73	74	77	81
CCCOc1cccc2c(=O)c(-c3ccc(OC)cc3)c[nH]c12 [Example 3, 3-(4-Methoxyphenyl)-8-propoxy-1H-quinolin-4-one]	231 to 233	68	77	77	83	67
CCCOc1ccc(OC)c2c(=O)c(-c3ccc(OC)cc3)c[nH]c12 [Example 13, 5-Methoxy-3-(4-methoxyphenyl)-8-propoxy-1H-quinolin-4-one]	223 to 224	56	65	74	69	62
COc1ccc(-c2c[nH]c3c(Oc4ccccc4)cccc3c2=O)cc1 [Example 18, 3-(4-Methoxyphenyl)-8-phenoxy-1H-quinolin-4-one]	250 to 251	29	45	44	47	30
CCCOc1ccc(C)c2c(=O)c(-c3ccc(OC)cc3OC)c[nH]c12 [Example 20, 3-(2,4-Dimethoxyphenyl)-5-methyl-8-propoxy-1H-quinolin-4-one]	193 to 194	65	67	74	78	77
CCCOc1ccc(OC)c2c(=O)c(-c3ccc(OC)cc3OC)c[nH]c12 [Example 21, 3-(2,4-Dimethoxyphenyl)-5-methoxy-8-propoxy-1H-quinolin-4-one]	113 to 114	65	68	77	82	84
CCCOc1c(C)cc(C)c2c(=O)c(-c3ccc(OC)cc3)c[nH]c12 [Example 23, 3-(4-Methoxyphenyl)-5,7-dimethyl-8-propoxy-1H-quinolin-4-one]	174 to 175	51	63	67	68	59
CCCOc1ccc(C(F)(F)F)c2c(=O)c(-c3ccc(OC)cc3)c[nH]c12 [Example 24, 3-(4-Methoxyphenyl)-8-propoxy-5-trifluoromethyl-1H-quinolin-4-one]	220 to 221	50	57	64	63	36
CCCOc1cccc2c(=O)c(-c3ccccc3C(F)(F)F)c[nH]c12 [Example 32, 8-Propoxy-3-(2-trofluoromethylphenyl)-1H-quinolin-4-one]	224	49	53	54	57	61
